Among the data in PubChem BioAssay (NCI) are TGI values, retold here.

Test systems include EKVX NSCLC; SNB-75 CNS; A549 NSCLC; DMS 273 small cell lung; HCT-15 colon; SN12C renal; RPMI-8226 leukemia; MOLT-4 leukemia; BT-549 breast; HS 578T breast.
Assay in all cases: inhibition of tumour cell growth, NCI panel, 48 h

Several values for one entry are separate records, joined by “and”; a condition that tells them apart may be missing. Equal values may be shown once.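 48-hour exposure; five concentrations; linearly interpolated endpoints. TGI marks complete inhibition of growth.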

Consider `CC1[C@@H]2C[C@@H]3O[C@@]34[C@H]3CCC5Cc6nc7c(nc6C[C@@]5(C)C3(O)CC(=O)[C@@]24CO[C@]12OC(C)(C)CC2O)CC1CC[C@@H]2C3=C[C@H]4O[C@@]5(O[C@@](C)(CO)C[C@@H]5O)C(C)[C@@]4(O)[C@]3(C)[C@@H](O)CC2[C@]1(C)C7` (stereo partly drawn), for which the TGI was 1.03 µM with EKVX NSCLC; 0.028 µM with SNB-75 CNS; 1.16 µM in the experiment on A549 NSCLC; 0.0177 µM in the experiment with DMS 273 small cell lung; 2.66 µM in the experiment with HCT-15 colon; above 3.52 µM with SN12C renal. The compound also registered a TGI with RPMI-8226 leukemia above 3.52 µM.
As to `C[S+](C)C1(c2ccccc2)C(=O)c2ccccc2C1=O`, the TGI is 76.9 µM in the experiment with EKVX NSCLC; above 89.2 µM in the experiment with SNB-75 CNS; above 100 µM in the experiment with MOLT-4 leukemia; 97.7 µM in the experiment on A549 NSCLC; 35.6 µM in the experiment on BT-549 breast; above 100 µM in the experiment with DMS 273 small cell lung. The TGI is above 100 µM in the experiment with HCT-15 colon, above 100 µM with SN12C renal, above 100 µM in the experiment with RPMI-8226 leukemia and 60.8 µM with HS 578T breast.
On to `O=c1cc(-c2ccccc2)[nH]c2c(F)ccc(F)c12`, for which the TGI in the experiment with SNB-75 CNS was 59 µM; in the experiment with MOLT-4 leukemia, above 100 µM; in the experiment with A549 NSCLC it was above 100 µM; in the experiment with DMS 273 small cell lung, above 100 µM; in the experiment with HCT-15 colon, above 100 µM; in the experiment with SN12C renal, above 100 µM. Further, the TGI in the experiment on RPMI-8226 leukemia was above 100 µM.
Consider `CN(C)CCSc1nccc(-c2ccc(-c3ccnc(SCCN(C)C)n3)s2)n1`, for which the TGI in the experiment with EKVX NSCLC came out at 37.4 µM; in the experiment on SNB-75 CNS it was 28.2 µM; in the experiment with MOLT-4 leukemia it was 10 µM; with A549 NSCLC, 31.7 µM; in the experiment on DMS 273 small cell lung, 22.8 µM; with HCT-15 colon, 17.3 µM. Besides, the values for the TGI in the experiment on SN12C renal and in the experiment on RPMI-8226 leukemia were 21 µM and 10.1 µM, respectively.
As to `C/C(=N/OCCC(=O)O)C1CC1`, the TGI with EKVX NSCLC, in the experiment with SNB-75 CNS, with A549 NSCLC, with DMS 273 small cell lung, in the experiment with HCT-15 colon and in the experiment on SN12C renal was above 100 µM throughout. This compound registered a TGI in the experiment on RPMI-8226 leukemia above 100 µM.
With `Cc1cc(N)c2cc(NC(=O)CCCCCCCCC(=O)Nc3ccc4nc(C)cc(N)c4c3)ccc2n1`, the TGI was above 89 µM in the experiment with EKVX NSCLC; above 100 µM in the experiment with SNB-75 CNS; above 39.8 µM in the experiment with MOLT-4 leukemia; above 31.6 µM with A549 NSCLC; above 45.3 µM in the experiment with DMS 273 small cell lung; above 100 µM with HCT-15 colon. For the same compound, the TGI in the experiment with SN12C renal is 26.6 µM; in the experiment on RPMI-8226 leukemia, above 100 µM.
Take `O=C(O)CSc1nnc(COc2ccccc2)n1-c1ccccc1`: the TGI in the experiment on SNB-75 CNS, in the experiment with MOLT-4 leukemia, in the experiment with A549 NSCLC, in the experiment on DMS 273 small cell lung, in the experiment with HCT-15 colon and in the experiment with SN12C renal was above 100 µM in each case. In addition, the TGI with RPMI-8226 leukemia was above 100 µM.
With `CN(C)CC(C)(C)C(=O)/C=C/c1ccccc1`, the TGI was 38.3 µM in the experiment on EKVX NSCLC; 37.7 µM in the experiment with SNB-75 CNS; 60.4 µM in the experiment on MOLT-4 leukemia; above 100 µM in the experiment on A549 NSCLC; 47.7 µM in the experiment with DMS 273 small cell lung; 26.9 µM with HCT-15 colon. Further, the TGI in the experiment on SN12C renal came to 33.7 µM; in the experiment on RPMI-8226 leukemia, 56.6 µM.
Turning to `Cc1cc(C)c(N)c(CO)c1`, the TGI in the experiment on EKVX NSCLC, in the experiment with SNB-75 CNS, in the experiment with MOLT-4 leukemia, with A549 NSCLC, in the experiment with BT-549 breast and with HCT-15 colon was above 100 µM throughout. In addition, the TGI in the experiment with SN12C renal, in the experiment on RPMI-8226 leukemia and with HS 578T breast was above 100 µM each time.
As to `CC(=O)OC1COC(n2c(N)c(C#N)c(-c3ccccc3)c(C#N)c2=S)C(OC(C)=O)C1OC(C)=O` (stereo not drawn), the TGI is above 100 µM with EKVX NSCLC; 86.8 µM and > 100 µM with SNB-75 CNS; 54.3 µM and 75.4 µM with MOLT-4 leukemia; above 100 µM in the experiment with A549 NSCLC; 71.8 µM and 62.9 µM in the experiment with BT-549 breast; above 100 µM with HCT-15 colon. The TGI with SN12C renal is above 100 µM; in the experiment on RPMI-8226 leukemia it was 58.7 µM and 68.3 µM; in the experiment with HS 578T breast, above 100 µM.
Consider `CCC(C)Cn1c(C)nc2c1C(=O)c1ccccc1C2=O` (stereo not drawn), for which the TGI in the experiment on EKVX NSCLC is above 100 µM; with SNB-75 CNS, above 100 µM; in the experiment on MOLT-4 leukemia, above 100 µM; in the experiment with A549 NSCLC, above 100 µM; with DMS 273 small cell lung, 64 µM; in the experiment on HCT-15 colon it was above 100 µM. The TGI with SN12C renal was above 100 µM.
Consider `O=C(Nc1ccccc1C(=O)O)C(=Cc1ccccc1O)NC(=O)c1ccccc1`, for which the TGI with EKVX NSCLC, in the experiment with SNB-75 CNS, in the experiment on MOLT-4 leukemia, in the experiment on A549 NSCLC, with BT-549 breast and with HCT-15 colon was above 100 µM throughout. In addition, the TGI with SN12C renal, in the experiment with RPMI-8226 leukemia and in the experiment with HS 578T breast was above 100 µM throughout.
Take `CCN(CC)CCC1(C(=O)OC)SCCc2ccc(C)cc21` (stereo not drawn): the TGI in the experiment with EKVX NSCLC, in the experiment on SNB-75 CNS, in the experiment with MOLT-4 leukemia, in the experiment with A549 NSCLC, in the experiment with BT-549 breast and with HCT-15 colon was above 100 µM each time. The TGI in the experiment on SN12C renal, in the experiment with RPMI-8226 leukemia and in the experiment with HS 578T breast was above 100 µM throughout.
Take `COc1nc2ncc([C@@H](O)[C@H](O)CO)nc2c(=O)[nH]1`: the TGI in the experiment with EKVX NSCLC, in the experiment with SNB-75 CNS, with MOLT-4 leukemia, with A549 NSCLC, in the experiment with BT-549 breast and in the experiment on HCT-15 colon was above 100 µM each time. The TGI in the experiment with SN12C renal, with RPMI-8226 leukemia and in the experiment with HS 578T breast was above 100 µM in each case.
On to `CSC(=N/N=C(\C)c1ccc(S(=O)(=O)N(C)c2ccccc2)cc1)SC`, for which the TGI with EKVX NSCLC, in the experiment on SNB-75 CNS, in the experiment on MOLT-4 leukemia, in the experiment on A549 NSCLC, in the experiment with BT-549 breast and with HCT-15 colon was above 100 µM in each case. For the same compound, the TGI in the experiment on SN12C renal, in the experiment on RPMI-8226 leukemia and in the experiment with HS 578T breast was above 100 µM throughout.
